The source of these data is patent US20060074243A1, “Hydroxamic acid and amide compounds and their use as protease inhibitors” (Pharmacia Corporation, priority 2002, published 2006).

What all share (test): In vitro MMP inhibition analysis (fluorogenic peptide substrate cleavage), Ki
Format in all cases: biochemical
What all share (conditions): Table 2

Test [1] addresses T1, Human recombinant MMP-9 (Homo sapiens, UniProt P14780).
T1 construct: made in house; host or cells: MMP-9-transfected HT1080 cells (spent media)
The method, boiled down: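 Recombinant MMP-9 purified from transfected HT1080 cell media, activated with APMA, trypsin or recombinant MMP-3, assayed in Tris buffer pH 7.5 with CaCl2 and 4 μM fluorogenic MCA/Dpa peptide, 1 h at room temperature (ex 330/em 420 nm). Ki from Morrison-equation regression of velocity; substrate at or below Km, uncorrected.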

In test [2] the target is T2, Human recombinant MMP-13 (Homo sapiens, UniProt P45452).
T2 construct: made in house; host or cells: baculovirus / insect cells
The method in brief: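 Baculovirus-expressed full-length MMP-13 proenzyme was purified on heparin-agarose and zinc-chelate columns, then APMA-activated. It cleaved 4 μM MCA/Dpa fluorogenic peptide in 100 mM Tris-HCl, 100 mM NaCl, 10 mM CaCl2, 0.05% Brij-23, pH 7.5, for 1 h at room temperature (ex 330/em 420 nm). Ki came from Morrison-equation fits with substrate ≤Km, uncorrected.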

Test [3] addresses T3, Human recombinant MMP-1 (Homo sapiens, UniProt P03956).
T3 construct: made in house; host or cells: MMP-1-transfected HT-1080 cells (spent media)
T3 sequence (P03956 100-469): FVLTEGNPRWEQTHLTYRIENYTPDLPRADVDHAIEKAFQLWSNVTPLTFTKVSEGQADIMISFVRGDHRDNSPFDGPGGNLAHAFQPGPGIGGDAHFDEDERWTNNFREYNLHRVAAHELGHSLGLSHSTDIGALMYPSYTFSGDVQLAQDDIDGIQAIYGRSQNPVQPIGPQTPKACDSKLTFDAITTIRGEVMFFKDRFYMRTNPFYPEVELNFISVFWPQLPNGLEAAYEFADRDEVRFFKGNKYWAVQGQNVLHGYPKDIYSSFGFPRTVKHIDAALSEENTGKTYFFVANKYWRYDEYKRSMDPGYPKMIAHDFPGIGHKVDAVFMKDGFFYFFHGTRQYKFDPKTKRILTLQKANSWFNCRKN
The method in brief:
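APMA- or trypsin-activated recombinant human MMP-1 (purified from transfected HT-1080 medium) with 4 μM MCA/Dpa quenched fluorogenic peptide, 1 h at room temperature in Tris/NaCl/CaCl2 buffer pH 7.5; fluorescence ex 330/em 420 nm. Ki from Morrison-equation fit of rates, substrate at or below Km, uncorrected.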

T1 sequence (P14780 107-707 limits assumed): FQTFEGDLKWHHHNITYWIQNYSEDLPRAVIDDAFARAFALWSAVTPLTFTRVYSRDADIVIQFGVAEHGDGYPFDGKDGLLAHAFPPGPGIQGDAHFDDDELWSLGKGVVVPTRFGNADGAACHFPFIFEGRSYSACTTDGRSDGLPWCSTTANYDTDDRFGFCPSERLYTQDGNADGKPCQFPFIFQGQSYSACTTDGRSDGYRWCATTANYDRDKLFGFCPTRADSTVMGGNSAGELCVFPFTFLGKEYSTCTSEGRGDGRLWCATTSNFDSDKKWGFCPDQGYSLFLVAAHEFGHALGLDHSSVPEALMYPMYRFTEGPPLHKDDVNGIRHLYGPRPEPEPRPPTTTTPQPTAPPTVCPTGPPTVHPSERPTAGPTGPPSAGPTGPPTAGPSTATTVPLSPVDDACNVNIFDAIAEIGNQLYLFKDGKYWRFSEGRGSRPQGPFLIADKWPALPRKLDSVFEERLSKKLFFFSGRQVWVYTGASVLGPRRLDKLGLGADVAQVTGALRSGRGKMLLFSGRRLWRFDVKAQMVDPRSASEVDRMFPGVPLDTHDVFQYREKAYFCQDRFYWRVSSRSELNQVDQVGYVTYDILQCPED

Consider `O=C(NO)C1(S(=O)(=O)c2ccc(-c3ccc(OCC(F)(F)C(F)(F)F)c(C(F)(F)F)c3)cc2)CCOCC1` [Example 90], for which the Ki in test [1] is 216 nM; in test [2], 19.7 nM; in test [3], > 10000 nM.
Taken in the same sequence, the figures for `CC(C)CCc1cnc(-c2ccc(S(=O)(=O)C3(C(=O)NO)CCOCC3)cc2)cn1` [Example 169] were 0.59 nM, 0.24 nM and > 10000 nM.
On to `O=C(NO)C1(S(=O)(=O)c2ccc(-c3ccc(C(F)(F)F)cn3)cc2)CCOCC1` [Example 82], for which the values for the Ki in test [1], in test [2] and in test [3] were 1.99 nM, 0.13 nM and 256 nM, respectively.
For `O=C(NCC1CC1)c1ccc2cc(-c3ccc(S(=O)(=O)C4(C(=O)NO)CCOCC4)cc3)ccc2c1` [Example 220], the Ki in test [1] stood at 50.5 nM; in test [2], 0.259 nM; in test [3] it was 251 nM.
As for `CN(C)C(=O)N1CCC(C(=O)NO)(S(=O)(=O)c2ccc(-c3ccc(CCC(F)(F)C(F)(F)F)cc3)cc2)CC1` [Example 173], the Ki in test [1] was found to be 0.67 nM; in test [2], 0.32 nM; in test [3], 4610 nM.
As to `CC(C)(C)NC(=O)c1ccc(-c2ccc(S(=O)(=O)C3(C(=O)NO)CCOCC3)cc2)nc1` [Example 205], the Ki in test [1] worked out at 21.8 nM; in test [2] it was 1.19 nM; in test [3], 1070 nM.
For `O=C(NC1CCCC1)c1ccc(-c2ccc(S(=O)(=O)C3(C(=O)NO)CCOCC3)cc2)nc1` [Example 198], the results for the Ki in test [1], in test [2] and in test [3] were 28.4 nM, 0.323 nM and 552 nM, respectively.
For the compound `CC(C)CCOc1ccc(-c2ccc(S(=O)(=O)C3(C(=O)NO)CCOCC3)cc2)cc1C(F)(F)F` [Example 86], the Ki in test [1] is 414 nM; in test [2], 36.2 nM; in test [3], > 10000 nM.
In the case of `COCCOc1ccc(-c2ccc(S(=O)(=O)C3(C(=O)NO)CCOCC3)cc2)cc1` [Example 70], the Ki amounted to 1.11 nM in test [1], 0.03 nM in test [2] and 969 nM in test [3].
`CC[C@@H](C)NC(=O)c1ccc(-c2ccc(S(=O)(=O)C3(C(=O)NO)CCOCC3)cc2)nc1` [Example 207]: the Ki came to 78 nM in test [1], 0.729 nM in test [2] and 1380 nM in test [3].
In the case of `O=C(NO)C1(S(=O)(=O)c2ccc(-c3ccc(CCCC(F)(F)F)cn3)cc2)CC=CC1` [Example 202], the Ki is 0.578 nM in test [1], 0.076 nM in test [2] and 4060 nM in test [3].
Take `CN(C)C(=O)c1ccc2cc(-c3ccc(S(=O)(=O)C4(C(=O)NO)CCOCC4)cc3)ccc2c1` [Example 221]: the Ki in test [1] came out at 16.7 nM; in test [2], 0.736 nM; in test [3], 1860 nM.
Taken in the same sequence, the figures for `CCc1ccc(-c2ccc(S(=O)(=O)C3(C(=O)NO)CCOCC3)cc2)cc1` [Example 79] were 0.635 nM, 0.091 nM and 471 nM.
Taken in the same sequence, the figures for `O=C(CCc1nccs1)c1ccc(-c2ccc(S(=O)(=O)C3(C(=O)NO)CCOCC3)cc2)cc1` [Example 211] were 9.78 nM, 0.056 nM and 975 nM.
Take `CC(C)NC(=O)c1ccc(-c2ccc(S(=O)(=O)C3(C(=O)NO)CCOCC3)cc2)nc1` [Example 204]: the figures for the Ki in test [1], in test [2] and in test [3] were 11.8 nM, 0.751 nM and 751 nM, respectively.
Taken in the same sequence, the figures for `CCC(C)COc1ccc(-c2ccc(S(=O)(=O)C3(C(=O)NO)CCOCC3)cc2)cc1C(F)(F)F` (stereo not drawn) [Example 92] were 106 nM, 29.7 nM and > 10000 nM.
As for `CCCCc1cnc(-c2ccc(S(=O)(=O)C3(C(=O)NO)CCN(CCOC)CC3)cc2)cn1` [Example 206], the Ki in test [1] was 1.8 nM; in test [2], 0.41 nM; in test [3] it was > 10000 nM.
As for `C#CCN1CCC(C(=O)NO)(S(=O)(=O)c2ccc(-c3ccc(CCC(F)(F)C(F)(F)F)cn3)cc2)CC1` [Example 199], the Ki in test [1] came to 0.147 nM; in test [2], 0.086 nM; in test [3] it was 4510 nM.
For the compound `COc1ccc(Cc2cnc(-c3ccc(S(=O)(=O)C4(C(=O)NO)CCOCC4)cc3)cn2)cc1` [Example 182], the Ki in test [1] is 246 nM; in test [2], 7.07 nM; in test [3] it was > 10000 nM.
The matching figures for `O=C(NO)C1(S(=O)(=O)c2ccc(-c3ccccc3CO)cc2)CCOCC1` [Example 197]: > 10000 nM, 1080 nM and > 10000 nM.
As for `CCCCc1ccc(-c2ccc(S(=O)(=O)C3(C(=O)NO)CCOCC3)cc2)nc1` [Example 89], the Ki came out at 0.0528 nM in test [1], 0.0332 nM in test [2] and 2260 nM in test [3].
The matching figures for `CCCCNC(=O)c1ccc(-c2ccc(S(=O)(=O)C3(C(=O)NO)CCOCC3)cc2)nc1` [Example 203]: 61.4 nM, 0.375 nM and 1140 nM.
The matching figures for `CC(C)CCNC(=O)c1cnc(-c2ccc(S(=O)(=O)C3(C(=O)NO)CCOCC3)cc2)cn1` [Example 185]: 13.5 nM, 0.19 nM and 501 nM.
`CC(C)N(C(=O)N1CCC(C(=O)NO)(S(=O)(=O)c2ccc(-c3ccc(CCC(F)(F)C(F)(F)F)cc3)cc2)CC1)C(C)C` [Example 174]: the Ki is 3.77 nM in test [1], 1.92 nM in test [2] and > 10000 nM in test [3].
As for `O=C(NO)C1(S(=O)(=O)c2ccc(-c3cnc(CCCC(F)(F)F)cn3)cc2)CCN(C2CC2)CC1` [Example 218], the Ki in test [1] is 0.938 nM; in test [2], 0.267 nM; in test [3], > 10000 nM.
In the case of `COCCC(C(=O)NO)S(=O)(=O)c1ccc(-c2ccc(CCC(F)(F)C(F)(F)F)cc2)cc1` (stereo not drawn) [Example 177], the figures for the Ki in test [1], in test [2] and in test [3] were 5.36 nM, 0.82 nM and > 10000 nM, respectively.
The matching figures for `CCCCc1ccc(-c2ccc(S(=O)(=O)C3(C(=O)NO)CCOCC3)cc2)cc1` [Example 91]: 0.266 nM, 0.217 nM and 3900 nM.
As to `O=C(NO)C1(S(=O)(=O)c2ccc(-c3ccc(CCC(F)(F)C(F)(F)F)cn3)cc2)CCOCC1` [Example 201], the Ki in test [1] was 0.097 nM; in test [2], 0.02 nM; in test [3], 980 nM.
Regarding `CC(C)CNC(=O)c1cnc(-c2ccc(S(=O)(=O)C3(C(=O)NO)CCOCC3)cc2)cn1` [Example 186], the Ki in test [1] came to 21.7 nM; in test [2], 0.55 nM; in test [3] it was 1100 nM.
Taken in the same sequence, the figures for `COC(=O)c1ccc2cc(-c3ccc(S(=O)(=O)C4(C(=O)NO)CCOCC4)cc3)ccc2c1` [Example 181] were 0.264 nM, 0.09 nM and 465 nM.
For the compound `O=C(NO)C1(S(=O)(=O)c2ccc(-c3cnc(OCCCC(F)(F)F)cn3)cc2)CCOCC1` [Example 88], the Ki stood at 2.31 nM in test [1], 0.0368 nM in test [2] and 3520 nM in test [3].
For `O=C(NO)C1(S(=O)(=O)c2ccc(-c3cnc4ccccc4n3)cc2)CCOCC1` [Example 194], the Ki in test [1] is 1260 nM; in test [2], 319 nM; in test [3] it was > 10000 nM.
For `COC/C(Cl)=C/c1cnc(-c2ccc(S(=O)(=O)C3(C(=O)NO)CCOCC3)cc2)cn1` [Example 165], the results for the Ki in test [1], in test [2] and in test [3] were 267 nM, 0.84 nM and 8950 nM, respectively.
On to `CCCc1ccc(-c2ccc(S(=O)(=O)C3(C(=O)NO)CCOCC3)cc2)cc1` [Example 87], for which the values for the Ki in test [1], in test [2] and in test [3] were 0.176 nM, 0.138 nM and 1110 nM, respectively.
The matching figures for `CCNc1cnc(-c2ccc(S(=O)(=O)C3(C(=O)NO)CCOCC3)cc2)cn1` [Example 93]: 4.86 nM, 4.45 nM and > 10000 nM.
The matching figures for `O=C(NO)C1(S(=O)(=O)c2ccc(-c3ccc4c(c3)OCO4)cc2)CCOCC1` [Example 188]: 4.23 nM, 0.08 nM and 81.2 nM.
For `CCCCOc1ccc(-c2ccc(S(=O)(=O)C3(C(=O)NO)CCOCC3)cc2)cc1` [Example 77], the Ki in test [1] is 0.398 nM; in test [2], 0.0485 nM; in test [3] it was 1290 nM.
The matching figures for `O=C(NO)C1(S(=O)(=O)c2ccc(-c3cnc(OCC4CC4)cn3)cc2)CCOCC1` [Example 168]: 0.19 nM, 0.06 nM and 1920 nM.

What is called Ki is a measure of affinity in units of concentration, obtained from inhibition or displacement.
